In BindingDB's records for doi:10.1016/j.bmc.2019.01.035 (Florida A&M University, 2019):

Molecular target: Sigma non-opioid intracellular receptor 1 (Homo sapiens, UniProt Q99720)
Assay: Displacement [3H]-Pentazocine from sigma 1 receptor (unknown origin) expressed in HEK cell membranes

Sigma non-opioid intracellular receptor 1, sequence (Q99720 whole entry): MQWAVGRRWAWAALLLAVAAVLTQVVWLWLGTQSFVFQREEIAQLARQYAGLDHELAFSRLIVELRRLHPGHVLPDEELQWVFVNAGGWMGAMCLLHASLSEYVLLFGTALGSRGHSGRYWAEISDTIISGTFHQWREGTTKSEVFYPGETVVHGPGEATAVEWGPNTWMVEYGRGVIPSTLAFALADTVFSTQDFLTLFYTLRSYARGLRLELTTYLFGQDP

Ki: 63 nM
Structure (SMILES): O=C(CCCN1CCCN(c2ccccn2)CC1)c1ccc(F)cc1
